Values of other authors, collected in patent publication US20090197966A1, “Use of Hypothermia Inducing Drugs” (priority 2006, published 2009).
Like-named read-outs stand apart in the source and are kept apart here.

System: TRPV1 receptor
Conditions: systemic administration

Compound: COc1cc(CNC(=O)CCCC/C=C/C(C)C)ccc1O [capsaicin, 8-methyl-N-vallilyl-6-nonenamide]
- hypothermic response (mammals): dramatic hypothermic response
- hypothermic response (mice lacking the TRPV1 gene): absent
